# Reference: patent US20020137929A1, “1 - (3-heterocyclylphenyl) isothiourea, -isourea, -guanidine and -amidine herbicidal agents” (Intellectual Property Department, BASF Aktiengesellschaft, priority 1998, published 2002)
# Experiments:
# ABUTH (Velvetleaf) = test: Postemergence herbicidal evaluation; format: in vivo, Abutilon theophrasti; settings: postemergence
# Outline: (§1)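 Scores (0–9) reflect plant stand, vigor, malformation, size, chlorosis and general appearance relative to control, read 4 to 5 weeks after treatment and averaged where tests were repeated. Application: about 0.0156–0.500 kg/ha sprayed at 40 psi onto two-week seedlings.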
# [1] = test system: CHEAL (Lambsquarters, Common); test: Postemergence herbicidal evaluation; format: in vivo, Chenopodium album; settings: postemergence
# Outline: as §1
# SETVI (Foxtail, Green) [2] = test: Postemergence herbicidal evaluation; format: in vivo, Setaria viridis; settings: postemergence
# Outline: as §1
# [3] = test system: GLXMAW (Soybean, Williams); test: Postemergence herbicidal evaluation; format: in vivo, Glycine max, (L.) Merr. cv Williams; settings: postemergence
# Outline: as §1
# ORYSAT (Rice, Tebonnet) = test: Postemergence herbicidal evaluation; format: in vivo, Oryza sativa, (L.) Tebonnet; settings: postemergence
# Outline: as §1
# [4] = test system: TRZAWR (Wheat, Winter, cv Riband); test: Postemergence herbicidal evaluation; format: in vivo, Triticum aestivum; settings: postemergence
# Outline: as §1
# ZEAMX (Corn, Field) = test: Postemergence herbicidal evaluation; format: in vivo, Zea mays; settings: postemergence
# Outline: as §1
# AMBEL (Ragweed, Common) = test: Preemergence herbicidal evaluation; format: in vivo, Ambrosia artemisifolia; settings: rated 4-5 weeks after treatment
# Outline: (§2)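 Scores (0–9) reflect visual comparison with control plants for stand, vigor, malformation, size and chlorosis. Compound was applied to the soil after sowing, before emergence, as an aqueous acetone spray (about 0.0156–0.500 kg/ha), and cups were kept in a greenhouse for 4–5 weeks.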
# GALAP (Galium) = test: Preemergence herbicidal evaluation; format: in vivo, Galium aparine; settings: rated 4-5 weeks after treatment
# Outline: as §2
# SETVI (Foxtail, Green) [5] = test: Preemergence herbicidal evaluation; format: in vivo, Setaria viridis; settings: rated 4-5 weeks after treatment
# Outline: as §2
# CYPIR (Rice Flatsedge) = test: Preemergence weed control under flooded paddy conditions; format: in vivo, Cyperus iria; settings: rated 3-4 weeks after treatment
# Outline: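 Seeds or propagules sown in top 0.5 cm of silt loam soil, flooded 1.5 to 3 cm above surface throughout. Compound in 50/50 v/v aqueous/acetone pipetted into flood water at about 0.0313 to 0.500 kg/ha. Visual 0-9 rating versus control after three to four weeks in greenhouse.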
compound,measurement,setting,value
"CCOC(=O)CN1C(=O)C(CC(=O)O)SC1=Nc1cc(N2C(=O)CC(C(F)(F)F)CC2=O)c(F)cc1Cl (stereo not shown) [Compound 170, 2-{{2-Chloro-5-[2,6-dioxo-4-(trifluoromethyl)-piperidino]-4-fluorophenyl}imino}-4-oxo-3,5-thiazolidinediacetic acid, 3-ethyl ester]",Herbicidal rating ABUTH,ABUTH (Velvetleaf); rate 0.0156 kg/ha,9.0
same,Herbicidal rating ABUTH,ABUTH (Velvetleaf); rate 0.0313 kg/ha,9.0
same,Herbicidal rating ABUTH,ABUTH (Velvetleaf); rate 0.0625 kg/ha,9.0
same,Herbicidal rating CHEAL,[1]; rate 0.0156 kg/ha,4.0
same,Herbicidal rating CHEAL,[1]; rate 0.0313 kg/ha,9.0
same,Herbicidal rating CHEAL,[1]; rate 0.0625 kg/ha,9.0
same,Herbicidal rating SETVI,"SETVI (Foxtail, Green) [2]; rate 0.0156 kg/ha",6.0
same,Herbicidal rating SETVI,"SETVI (Foxtail, Green) [2]; rate 0.0313 kg/ha",9.0
same,Herbicidal rating SETVI,"SETVI (Foxtail, Green) [2]; rate 0.0625 kg/ha",9.0
same,Herbicidal rating GLXMAW,[3]; rate 0.0156 kg/ha,7.5
same,Herbicidal rating GLXMAW,[3]; rate 0.0313 kg/ha,7.5
same,Herbicidal rating GLXMAW,[3]; rate 0.0625 kg/ha,7.5
same,Herbicidal rating ORYSAT,"ORYSAT (Rice, Tebonnet); rate 0.0156 kg/ha",2.0
same,Herbicidal rating ORYSAT,"ORYSAT (Rice, Tebonnet); rate 0.0313 kg/ha",2.0
same,Herbicidal rating ORYSAT,"ORYSAT (Rice, Tebonnet); rate 0.0625 kg/ha",2.5
same,Herbicidal rating TRZAWR,[4]; rate 0.0156 kg/ha,3.5
same,Herbicidal rating TRZAWR,[4]; rate 0.0313 kg/ha,4.0
same,Herbicidal rating TRZAWR,[4]; rate 0.0625 kg/ha,5.0
same,Herbicidal rating ZEAMX,"ZEAMX (Corn, Field); rate 0.0156 kg/ha",5.0
same,Herbicidal rating ZEAMX,"ZEAMX (Corn, Field); rate 0.0313 kg/ha",6.0
same,Herbicidal rating ZEAMX,"ZEAMX (Corn, Field); rate 0.0625 kg/ha",6.0
same,Preemergence herbicidal rating AMBEL,"AMBEL (Ragweed, Common); 0.0156 kg/ha",0.0
same,Preemergence herbicidal rating AMBEL,"AMBEL (Ragweed, Common); 0.0313 kg/ha",0.0
same,Preemergence herbicidal rating AMBEL,"AMBEL (Ragweed, Common); 0.0625 kg/ha",4.0
same,Preemergence herbicidal rating AMBEL,"AMBEL (Ragweed, Common); 0.1250 kg/ha",9.0
same,Preemergence herbicidal rating AMBEL,"AMBEL (Ragweed, Common); 0.2500 kg/ha",9.0
same,Preemergence herbicidal rating GALAP,GALAP (Galium); 0.0156 kg/ha,0.0
same,Preemergence herbicidal rating GALAP,GALAP (Galium); 0.0313 kg/ha,0.0
same,Preemergence herbicidal rating GALAP,GALAP (Galium); 0.0625 kg/ha,0.0
same,Preemergence herbicidal rating GALAP,GALAP (Galium); 0.1250 kg/ha,0.0
same,Preemergence herbicidal rating GALAP,GALAP (Galium); 0.2500 kg/ha,3.0
same,Preemergence herbicidal rating SETVI,"SETVI (Foxtail, Green) [5]; 0.0156 kg/ha",9.0
same,Preemergence herbicidal rating SETVI,"SETVI (Foxtail, Green) [5]; 0.0313 kg/ha",9.0
same,Preemergence herbicidal rating SETVI,"SETVI (Foxtail, Green) [5]; 0.0625 kg/ha",9.0
same,Preemergence herbicidal rating SETVI,"SETVI (Foxtail, Green) [5]; 0.1250 kg/ha",9.0
same,Preemergence herbicidal rating SETVI,"SETVI (Foxtail, Green) [5]; 0.2500 kg/ha",9.0
same,"herbicidal effect rating, CYPIR",CYPIR (Rice Flatsedge); 0.0313 kg/ha,9.0
same,"herbicidal effect rating, CYPIR",CYPIR (Rice Flatsedge); 0.0625 kg/ha,9.0
same,"herbicidal effect rating, CYPIR",CYPIR (Rice Flatsedge); 0.1250 kg/ha,9.0
same,"herbicidal effect rating, CYPIR",CYPIR (Rice Flatsedge); 0.2500 kg/ha,9.0
